Data on five compounds can be found in article PMC9739877, “Discovery and Mechanistic Investigation of Piperazinone Phenylalanine Derivatives with Terminal Indole or Benzene Ring as Novel HIV-1 Capsid Modulators” (Molecules, 2022).

The nature of data set [1]: Cytotoxicity in mock-infected MT-4 cells, MTT assay. To be noted: human, 50% reduction of viability of mock-infected MT-4 cells. The format is cell-based. The method, then: (§1) II. In vitro anti-HIV Assay in MT-4 Cells […]
(§2) performed using the MTT assay as described below. Stock solutions (10 × final concentration) of test compounds were added in 25 µL volumes to two series of […]
(§3) infected cells at the beginning of each experiment. Serial 5-fold dilutions of test […]
(§4) Biomek 3000 robot (Beckman Instruments, Fullerton, CA). Untreated HIV- and mock-infected cell samples were included as controls. HIV stock (50 µL) at 100-300 CCID50 […]
(§5) or mock-infected wells of the microtiter tray. Mock-infected cells were used to evaluate […]
(§6) cytotoxicity. Exponentially growing MT-4 cells were centrifuged for 5 minutes at 220 g, and the supernatant was discarded. […]
(§7) cells/mL, and 50 µL volumes were transferred to the microtiter tray wells. Five days […]
(§8) spectrophotometrically using the MTT assay. The MTT assay is based on the reduction […]
(§9) M1000, Tecan), at two wavelengths (540 and 690 nm). All data were calculated using the median absorbance value of three wells.
(§10) (OD540) of the mock-infected control sample by 50%. The concentration achieving 50%
(Formazan colour is commonly taken as a measure of viable cells.)

For data set [2], the system named is HIV-1 (IIIB). The data set can be described thus: microbe, parasite or virus in culture. The data set is classed as cell-based. To be noted: Human immunodeficiency virus 1, MT4, 50% protection against HIV-induced cytotoxicity, MT-4 cells, MTT. How it is done:
(§11) II. In vitro anti-HIV Assay in MT-4 Cells
(§12) Evaluation of the antiviral activity of the compounds against HIV in MT-4 cells was performed using the MTT assay as described below. Stock solutions (10 × final concentration) of test compounds were added in 25 µL volumes to two series of triplicate wells to allow simultaneous evaluation of their effects on mock- and HIV-infected cells at the beginning of each experiment. Serial 5-fold dilutions of test compounds were made directly in flat-bottomed 96-well microtiter trays using a Biomek 3000 robot (Beckman Instruments, Fullerton, CA). Untreated HIV- and mock-infected cell samples were included as controls. HIV stock (50 µL) at 100-300 CCID50 (50 % cell culture infectious doses) or culture medium was added to either the infected or mock-infected wells of the microtiter tray. Mock-infected cells were used to evaluate the effects of the test compound on uninfected cells to assess the test compounds' cytotoxicity. Exponentially growing MT-4 cells were centrifuged for 5 minutes at 220 g, and the supernatant was discarded. […]
(§13) cells/mL, and 50 µL volumes were transferred to the microtiter tray wells. Five days after infection, the viability of mock-and HIV-infected cells was examined spectrophotometrically using the MTT assay. The MTT assay is based on the reduction of yellow colored 3-(4,5-dimethylthiazol-2-yl)-2,5-diphenyltetrazolium bromide (MTT) (Acros Organics) by mitochondrial dehydrogenase activity in metabolically active cells to a blue-purple formazan that can be measured spectrophotometrically. The absorbances were read in an eight-channel computer-controlled photometer (Infinite M1000, Tecan), at two wavelengths (540 and 690 nm). All data were calculated using the median absorbance value of three wells. […]
(§14) was defined as the concentration of the test compound that reduced the absorbance (OD540) of the mock-infected control sample by 50%. The concentration achieving 50% protection against the cytopathic effect of the virus in infected cells was defined as the […]

For data set [3], the system named is HIV-2 (ROD). The data set can be described thus: Anti-HIV-2 (ROD) activity in MT-4 cells, MTT assay. The format is cell-based. The following applies: Human immunodeficiency virus 2, MT4, 50% protection against HIV-induced cytotoxicity. The method, then: as §11, §12, §13, §14
For data set [4] the following is noted: human, microsomes.
Data set [5] deals with MT-4 cells. Description: Cytotoxicity in mock-infected MT-4 cells, MTT assay. The data set is classed as cell-based. The following applies: 50% reduction of viability of mock-infected MT-4 cells. The method, then: as §1, §2, §3, §4, §5, §6, §7, §8, §9, §10
In data set [6] the target is HIV-1 CA hexamer (Human immunodeficiency virus type 1 group M subtype B, UniProt P12493, A146C/E177C/M317A/W316A). Description: SPR binding to disulfide-stabilized hexameric HIV-1 CA. A general note: SPR reads the build-up and loss of mass on a sensor chip optically.
A short description of data set [7]: in vitro. To be noted: both, human, plasma.
Data set [8] has as its target T1, HIV-1 CA monomer (Human immunodeficiency virus type 1 group M subtype B, UniProt P12493).
T1 construct: a vector containing C-terminally His-tagged HIV-1NL4-3CA; His6 (CA-H6) (C); made in house; host or cells: E. coli BL21-Codon Plus (DE3)-RIL
Description: biochemical. The data set is classed as binding. The following applies: SPR.

Data set [9] can be described thus: in vitro. The following applies: human, microsomes.

A value given as a limit tells only on which side of the number the result lay.

As a reminder, the CC50 is the concentration that lowers cell viability or growth by half. A lower CC50 goes with greater toxicity to the cells. The term EC50 denotes the midpoint of the concentration-response curve. High values mean lower potency in that assay, low ones higher potency in that assay. As to `COc1ccc(N(C)C(=O)[C@H](Cc2ccccc2)NC(=O)CN2CCN(C(=O)c3ccc(NS(C)(=O)=O)cc3)CC2=O)cc1` [7h, (S)-N-(4-methoxyphenyl)-N-methyl-2-(2-(4-(4-(methylsulfonamido)benzoyl)-2-oxopiperazin-1-yl)acetamido)-3-phenylpropanamide], the half-maximal cytotoxic concentration (CC50) at 5 days in data set [1] was > 201 µM. Moreover, the EC50 in data set [2] is 192 ± 3.17 µM; in data set [3], > 201 µM.

With `COc1ccc(N(C)C(=O)[C@H](Cc2ccccc2)NC(=O)CN2CCN(C(=O)c3ccc(NC(=O)C(F)(F)F)cc3)CC2=O)cc1` [7j, (S)-N-(4-methoxyphenyl)-N-methyl-2-(2-(2-oxo-4-(4-(2,2,2-trifluoroacetamido)benzoyl)piperazin-1-yl)acetamido)-3-phenylpropanamide], the CC50 at 5 days in data set [1] is > 195 µM. The figures for the EC50 in data set [2] and in data set [3] were 158 ± 6.77 µM and 15 ± 4.83 µM, respectively.

On to `O=C(O)Cc1ccccc1Nc1c(Cl)cccc1Cl` [Diclofenac, diclofenac], for which, in data set [4], the “CLint(liver)” value was 334.8 mL/min/kg, the “CLint(mic)” value is 372.0 µL/min/mg and the T1/2 is given as 3.7 min.

What is called Kd is the free concentration of one partner at which half of the binding sites on the other are occupied at equilibrium, for simple one-to-one binding. A low value points to higher affinity. Usually half-life stands for the time in which the quantity being followed falls by half. What is called amount remaining is what is left of the initial amount, in per cent. The CLint scaled is the rate of metabolic loss divided by the concentration. Read a low CLint scaled as greater metabolic stability. The microsomal CLint is a measure of how fast metabolising enzymes remove a compound, apart from limits set by blood flow. A lower microsomal CLint goes with greater metabolic stability. As to `COc1ccc(N(C)C(=O)[C@H](Cc2cc(F)cc(F)c2)NC(=O)CN2CCN(C(=O)Cc3c[nH]c4ccc(F)cc34)CC2=O)cc1` [F2-7f, (S)-3-(3,5-difluorophenyl)-2-(2-(4-(2-(5-fluoro-1H-indol-3-yl)acetyl)-2-oxopiperazin-1-yl)acetamido)-N-(4-methoxyphenyl)-N-methylpropanamide], in [5], the CC50 came to 16.4 ± 3.38 µM. This compound displayed a dissociation constant (Kd) in data set [6] of 7.2 ± 1.1 µM. For the same compound, in data set [6] (CA hexamers), the “koff times higher than that of PF74” value is on record as “approximately 8.5 times”. The “Ratio KD Monomer/KD Hexamer” value in data set [6] (SPR) amounted to 2.230. In addition, the “koff Hexamer” value in data set [6] (off-rate measured for HIV-1 CA hexamer) stood at 0.151 ± 0.028 s⁻¹. In [4] (1 h, 1 μM), the “Remaining (NCF = 60 min)” value is reported as 103.5% and the “Remaining (T = 60 min)” value came out at 0.0%. For the same compound, the half-maximal effective concentration (EC50) in data set [2] turned out to be 5.89 ± 2.03 µM. Besides, in data set [7], the half-life at 2 μM is > 289 min; the fraction remaining at 0 h, 2 μM was 100%; the share remaining at 10 min, 2 μM amounted to 98%; the share remaining at 0.5 h, 2 μM is 97.8%. Further, in [7], the amount remaining at 1 h, 2 μM was determined as 90.9% and the fraction remaining at 2 h, 2 μM worked out at 86.9%. Further, binding in data set [8] was put at a Kd of 16.1 ± 1.32 µM. Also, in [9], the CLint scaled at 1 μM turned out to be 2480 mL/min/kg, the half-life at 1 μM was 0.5 min and the microsomal CLint at 1 μM amounted to 2760 µL/min/mg. The compound also gave a half-maximal effective concentration (EC50) in data set [3] of 5.07 ± 0.63 µM.

As for `COc1ccc(N(C)C(=O)[C@H](Cc2cc(F)cc(F)c2)NC(=O)CN2CCN(C(=O)c3ccc(NS(C)(=O)=O)cc3)CC2=O)cc1` [F2-7h, (S)-3-(3,5-difluorophenyl)-N-(4-methoxyphenyl)-N-methyl-2-(2-(4-(4-(methylsulfonamido)benzoyl)-2-oxopiperazin-1-yl)acetamido)propenamide], the cytotoxic concentration (CC50) at 5 days in data set [1] is > 190 µM. In addition, the EC50 is 161 ± 15.4 µM in data set [2] and 183 ± 2.77 µM in [3].
